Where a name gives a salt, the structure may show the parent alone.
Legend:
[1] = target: T1, recombinant human adrenergic beta 1 receptors (Homo sapiens, UniProt P08588); assay: Adrenergic β1 selectivity assay, [125I]-Iodocyanopindolol binding to membranes; details: inhibition of [125I]-Iodocyanopindolol binding (0.036 nM); read-out: β1 bind pIC50 (converted)
T1 construct: purchased Euroscreen
Method: (§1) Membranes containing recombinant human adrenergic beta 1 receptors were obtained from Euroscreen. These were diluted in Assay Buffer (50 mM HEPES, 1 mM EDTA, 120 mM NaCl, 0.1% gelatin, pH 7.4) to provide a final concentration of membranes that gave a clear window between maximum and minimum specific binding.
(§2) Assays were performed in U-bottomed 96-well polypropylene plates. 10 μL [^125I]-Iodocyanopindolol (0.036 nM final concentration) and 10 μL of test compound (10× final concentration) were added to each test well. For each assay plate 8 replicates were obtained for [^125I]-Iodocyanopindolol binding in the presence of 10 μL vehicle (10% (v/v) DMSO in Assay Buffer; defining maximum binding) or 10 μL Propranolol (10 μM final concentration; defining non-specific binding (NSB)). Membranes were then added to achieve a final volume of 100 μL. The plates were incubated for 2 hours at room temperature and then filtered onto PEI coated GF/B filter plates, pre-soaked for 1 hour in Assay Buffer, using a 96-well plate Tomtec cell harvester. Five washes with 250 μL wash buffer (50 mM HEPES, 1 mM EDTA, 120 mM NaCl, pH 7.4) were performed at 4° C. to remove unbound radioactivity. The plates were dried then sealed from underneath using Packard plate sealers and MicroScint-O (50 μL) was added to each well. The plates were sealed (TopSeal A) and filter-bound radioactivity was measured with a scintillation counter (TopCount, Packard BioScience) using a 3-minute counting protocol.
(§3) Total specific binding (B0) was determined by subtracting the mean NSB from the mean maximum binding. NSB values were also subtracted from values from all other wells.

β2 receptor [2] = target: T2, β2 receptor (Homo sapiens, UniProt P07550); assay: Alternative adrenergic β2 mediated cAMP production in H292 cells (60 minutes with test compound); type: cell-based; details: for EC50: cAMP, 60 minutes incubation with compound, 300 μM rolipram, read-out: β2 pEC50 (converted); for β2 Int Act: fraction relative to the maximum activity determined for formoterol, 60 minutes incubation
T2 construct: endogenous in cells; host or cells: H292 cells
Method: Alternative Adrenergic (β2 Mediated cAMP Production
H292 cells were grown in 225 cm2 flasks incubator at 37° C., 5% CO2 in RPMI medium containing, 10% (v/v) FBS (foetal bovine serum) and 2 mM L-glutamine.
Adherent H292 cells were removed from tissue culture flasks by treatment with Accutase™ cell detachment solution for 15 minutes. Flasks were incubated for 15 minutes in a humidified incubator at 37° C., 5% CO2. Detached cells were re-suspended in RPMI media (containing 10% (v/v) FBS and 2 mM L-glutamine) at 0.05×10^6 cells per mL. 5000 cells in 100 μL were added to each well of a tissue-culture-treated 96-well plate and the cells incubated overnight in a humidified incubator at 37° C., 5% CO2. The culture media was removed and cells were washed twice with 100 μL assay buffer and replaced with 50 μL assay buffer (HBSS solution containing 10 mM HEPES pH7.4 and 5 mM glucose). Cells were rested at room temperature for 20 minutes after which time 25 μL of rolipram (1.2 mM made up in assay buffer containing 2.4% (v/v) dimethylsulphoxide) was added. Cells were incubated with rolipram for 10 minutes after which time test compounds were added and the cells were incubated for 60 minutes at room temperature. The final rolipram concentration in the assay was 300 μM and final vehicle concentration was 1.6% (v/v) dimethylsulphoxide. The reaction was stopped by removing supernatants, washing once with 100 μL assay buffer and replacing with 50 μL lysis buffer. The cell monolayer was frozen at −80° C. for 30 minutes (or overnight).
The concentration of cAMP (cyclic adenosine monophosphate) in the cell lysate was determined using AlphaScreen™ methodology. The frozen cell plate was thawed for 20 minutes on a plate shaker then 10 μL of the cell lysate was transferred to a 96-well white plate. 40 μL of mixed AlphaScreen™ detection beads pre-incubated with biotinylated cAMP, was added to each well and the plate incubated at room temperature for 10 hours in the dark. The AlphaScreen™ signal was measured using an EnVision spectrophotometer (Perkin-Elmer Inc.) with the recommended manufacturer's settings. cAMP concentrations were determined by reference to a calibration curve determined in the same experiment using standard cAMP concentrations. Concentration response curves for agonists were constructed and data was fitted to a four parameter logistic equation to determine both the pEC50 and Intrinsic Activity. […]

[3] = target: T3, recombinant human Dopamine Subtype D2s receptors (Homo sapiens, UniProt P14416); assay: Dopamine D2 selectivity assay, [3H]-spiperone binding to membranes; details: read-out: D2 bind pIC50 (converted)
T3 construct: purchased Perkin Elmer
Method: as §1, with “human Dopamine Subtype D2s” for “human adrenergic beta 1”, “from Perkin Elmer.” for “from Euroscreen.”, “[…]” for “1 mM”
Assays were performed in U-bottomed 96-well polypropylene plates. 30 μL [^3H]-spiperone (0.16 nM final concentration) and 30 μL of test compound (10× final concentration) were added to each test well. For each assay plate 8 replicates were obtained for [^3H]-spiperone binding in the presence of 30 μL vehicle (10% (v/v) DMSO in Assay Buffer; defining maximum binding) or 30 μL Haloperidol (10 μM final concentration; defining non-specific binding (NSB)). Membranes were then added to achieve a final volume of 300 μL. The plates were incubated for 2 hours at room temperature and then filtered onto PEI coated GF/B filter plates, pre-soaked for 1 hour in Assay Buffer, using a 96-well plate Tomtec cell harvester. Five washes with 250 μL wash buffer (50 mM HEPES, 1 mM EDTA, 120 mM NaCl, pH 7.4) were performed at 4° C. to remove unbound radioactivity. The plates were dried then sealed from underneath using Packard plate sealers and MicroScint-O (50 μL) was added to each well. The plates were sealed (TopSeal A) and filter-bound radioactivity was measured with a scintillation counter (TopCount, Packard BioScience) using a 3-minute counting protocol.
as §3

[4] = target: T4, recombinant human α1D receptor (Homo sapiens, UniProt P25100); assay: Adrenergic α1D selectivity assay, [3H]-prazosin binding to HEK293 membranes; details: read-out: α1 bind pIC50 (converted)
T4 construct: expressed in transfected cells; host or cells: HEK293
T4 sequence (P25100 1-572): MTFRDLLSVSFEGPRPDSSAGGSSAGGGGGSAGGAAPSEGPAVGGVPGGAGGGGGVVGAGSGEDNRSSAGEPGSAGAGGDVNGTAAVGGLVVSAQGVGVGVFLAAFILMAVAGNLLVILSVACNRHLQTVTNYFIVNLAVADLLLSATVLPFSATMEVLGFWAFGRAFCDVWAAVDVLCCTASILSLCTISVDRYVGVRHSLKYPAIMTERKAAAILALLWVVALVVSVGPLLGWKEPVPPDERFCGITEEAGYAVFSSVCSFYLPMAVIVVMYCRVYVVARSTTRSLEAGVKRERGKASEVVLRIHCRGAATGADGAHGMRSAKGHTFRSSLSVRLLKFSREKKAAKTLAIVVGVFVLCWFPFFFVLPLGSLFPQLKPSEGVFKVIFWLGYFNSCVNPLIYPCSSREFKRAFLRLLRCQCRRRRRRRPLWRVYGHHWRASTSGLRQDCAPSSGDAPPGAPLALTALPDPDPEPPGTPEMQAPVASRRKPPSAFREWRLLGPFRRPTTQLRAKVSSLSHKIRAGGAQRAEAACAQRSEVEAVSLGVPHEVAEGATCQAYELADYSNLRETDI
Method: Membranes were prepared from human embryonic kidney 293 (HEK293) cells expressing recombinant human α1D receptor. These were diluted in Assay Buffer (50 mM HEPES, 1 mM EDTA, 0.1% gelatin, pH 7.4) to provide a final concentration of membranes that gave a clear window between maximum and minimum specific binding.
as §2, with “[^3H]-prazosin (0.3” for “[^125I]-Iodocyanopindolol (0.036”, “[^3H]-prazosin” for “[^125I]-Iodocyanopindolol”, “BMY7378” for “Propranolol”, “EDTA,” for “EDTA, 120 mM NaCl,”
as §3

β2 receptor [5] = target: T2, β2 receptor; assay: β2 mediated cAMP production in H292 cells, AlphaScreen cAMP detection (10 minutes with test compound); type: cell-based; details: for EC50: cAMP, 10 minutes incubation with compound, 300 μM rolipram; for Intrinsic Activity: fraction relative to the maximum activity determined for formoterol, 10 minutes incubation
Method: H292 cells were grown in RPMI (Roswell Park Memorial Institute) medium containing, 10% (v/v) FBS (foetal bovine serum) and 2 mM L-glutamine. Cells were grown in 225 cm2 flasks containing 25 mL media in a humidified incubator at 37° C., 5% CO2. Cells were harvested from the flask and passaged at a 1 in 10 dilution once per week.
The media from flasks containing H292 cells was removed, rinsed with 10 mL PBS (phosphate buffered saline) and replaced with 10 mL Accutase™ cell detachment solution. Flasks were incubated for 15 minutes in a humidified incubator at 37° C., 5% CO2. The cell suspension was counted and the cells re-suspended in RPMI media (containing 10% (v/v) FBS and 2 mM L-glutamine) at 0.05×10^6 cells per mL. 5000 cells in 100 μL were added to each well of a tissue-culture-treated 96-well plate and the cells incubated overnight in a humidified incubator at 37° C., 5% CO2. The culture media was removed, washed twice with 100 μL assay buffer and replaced with 50 μL assay buffer. Cells were rested at room temperature for 20 minutes after which time 25 μL of rolipram (1.2 mM made up in assay buffer containing 2.4% (v/v) dimethylsulphoxide) was added. Cells were incubated with rolipram for 10 minutes after which time test compounds (made up as ×4 concentrated stocks in assay buffer containing 4% (v/v) dimethylsulphoxide) were added and the cells were incubated for 10 minutes at room temperature. Final rolipram concentration in the assay was 300 μM and final vehicle concentration was 1.6% (v/v) dimethylsulphoxide. The reaction was stopped by removing supernatants, washing once with 100 μL assay buffer and replacing with 50 μL lysis buffer. The cell monolayer was frozen at −80° C. for 30 minutes (or overnight).
The concentration of cAMP (cyclic adenosine monophosphate) in the cell lysate was determined using the AlphaScreen™ methodology. The frozen cell plate was thawed for 20 minutes on a plate shaker then 10 μL of the cell lysate was transferred to a 96-well white plate. 40 μL of mixed AlphaScreen™ detection beads (containing equal volumes of donor beads (pre-incubated with biotinylated cAMP in the dark for 30 minutes) and acceptor beads), was added to each well and the plate incubated at room temperature for 10 hours in the dark. The AlphaScreen™ signal was measured using an EnVision spectrophotometer (Perkin-Elmer Inc.) with the recommended manufacturer's settings. cAMP concentrations were determined by reference to a calibration curve determined in the same experiment using standard cAMP concentrations (made up in lysis buffer in a 96-well tissue-culture-treated plate and frozen/thawed alongside the test samples) and detected using the same protocol. Concentration response curves for agonists were constructed to determine both the pEC50 and Intrinsic Activity.

T2 sequence (P07550 whole entry): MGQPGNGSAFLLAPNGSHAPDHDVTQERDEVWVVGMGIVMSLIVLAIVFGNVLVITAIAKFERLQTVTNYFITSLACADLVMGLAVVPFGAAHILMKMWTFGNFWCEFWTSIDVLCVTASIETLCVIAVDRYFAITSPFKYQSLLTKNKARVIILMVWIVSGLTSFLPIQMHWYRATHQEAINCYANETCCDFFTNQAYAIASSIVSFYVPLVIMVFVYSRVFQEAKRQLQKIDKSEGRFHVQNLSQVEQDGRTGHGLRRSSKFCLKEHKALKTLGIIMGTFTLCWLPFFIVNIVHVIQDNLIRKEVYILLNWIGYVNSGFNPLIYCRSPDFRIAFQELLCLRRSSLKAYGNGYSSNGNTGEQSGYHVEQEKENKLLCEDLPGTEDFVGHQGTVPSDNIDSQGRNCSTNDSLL
T1 sequence (P08588 whole entry): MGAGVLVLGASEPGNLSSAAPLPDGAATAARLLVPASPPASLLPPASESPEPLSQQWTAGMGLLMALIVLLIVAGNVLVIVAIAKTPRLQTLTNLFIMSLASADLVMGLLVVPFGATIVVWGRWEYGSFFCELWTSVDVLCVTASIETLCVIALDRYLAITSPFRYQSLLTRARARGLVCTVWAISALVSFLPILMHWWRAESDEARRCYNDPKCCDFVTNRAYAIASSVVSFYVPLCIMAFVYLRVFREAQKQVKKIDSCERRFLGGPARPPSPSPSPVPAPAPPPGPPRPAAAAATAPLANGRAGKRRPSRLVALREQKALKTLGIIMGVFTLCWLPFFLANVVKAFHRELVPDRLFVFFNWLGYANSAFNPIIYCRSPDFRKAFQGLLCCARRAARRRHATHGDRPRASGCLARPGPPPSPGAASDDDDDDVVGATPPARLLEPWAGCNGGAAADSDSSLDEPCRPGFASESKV
T3 sequence (P14416 1-414 isoform P14416-2): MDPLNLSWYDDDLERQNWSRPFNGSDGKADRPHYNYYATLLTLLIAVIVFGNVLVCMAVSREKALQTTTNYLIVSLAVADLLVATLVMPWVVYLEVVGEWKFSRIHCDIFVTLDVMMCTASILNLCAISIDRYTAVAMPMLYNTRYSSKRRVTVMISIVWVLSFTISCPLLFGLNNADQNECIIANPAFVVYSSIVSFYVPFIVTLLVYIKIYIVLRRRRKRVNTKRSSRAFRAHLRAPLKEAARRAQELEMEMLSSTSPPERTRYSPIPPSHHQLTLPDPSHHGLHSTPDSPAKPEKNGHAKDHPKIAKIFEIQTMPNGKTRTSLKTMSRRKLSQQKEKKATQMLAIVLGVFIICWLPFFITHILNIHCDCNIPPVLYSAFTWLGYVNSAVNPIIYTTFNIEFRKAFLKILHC

## CCCCN(CCNC[C@H](O)c1ccc(O)c2[nH]c(=O)sc12)C(=O)CCOCCc1ccccc1.Cl [Example 2, N-Butyl-N-(2-{[(2R)-2-hydroxy-2-(4-hydroxy-2-oxo-2,3-dihydro-1,3-benzothiazol-7-yl)ethyl]amino}ethyl)-3-(2-phenylethoxy)propanamide Hydrochloride]
[1]
  IC50: 6.31 nM
β2 receptor [2]
  EC50: 1 nM
  β2 Int Act: 0.9
[3]
  IC50: > 10000 nM
[4]
  IC50: 2510 nM

## CCN(CC)CCN(CCNC[C@H](O)c1ccc(O)c2[nH]c(=O)sc12)C(=O)CCOCCc1cccc(Cl)c1 [Example 9, 3-[2-(3-Chlorophenyl)ethoxy]-N-[2-(diethylamino)ethyl]-N-(2-{[(2R)-2-hydroxy-2-(4-hydroxy-2-oxo-2,3-dihydro-1,3-benzothiazol-7-yl)ethyl]amino}ethyl)propanamide]
[1]
  IC50: 1580 nM
β2 receptor [2]
  EC50: 3.98 nM
  β2 Int Act: 0.9
[3]
  IC50: > 10000 nM
[4]
  IC50: 2000 nM

## O=C(CCOCCc1ccccc1)N(CCNC[C@H](O)c1ccc(O)c2[nH]c(=O)sc12)CCc1ccccc1 [Example 4, N-(2-{[(2R)-2-Hydroxy-2-(4-hydroxy-2-oxo-2,3-dihydro-1,3-benzothiazol-7-yl)ethyl]amino}ethyl)-3-(2-phenylethoxy)-N-(2-phenylethyl)propanamide]
[1]
  IC50: 3.16 nM
β2 receptor [5]
  EC50: 1.26 nM
  Intrinsic Activity: 1.1
β2 receptor [2]
  EC50: 1.26 nM
  β2 Int Act: 0.9

## CN(CCNC[C@H](O)c1ccc(O)c2[nH]c(=O)sc12)C(=O)CCOCCc1ccccc1 [Example 5, N-(2-{[(2R)-2-Hydroxy-2-(4-hydroxy-2-oxo-2,3-dihydro-1,3-benzothiazol-7-yl)ethyl]amino}ethyl)-N-methyl-3-(2-phenylethoxy)propanamide Trifluoroacetate]
[1]
  IC50: 12.6 nM
β2 receptor [5]
  EC50: 0.316 nM
  Intrinsic Activity: 1.0
β2 receptor [2]
  EC50: 0.2 nM
  β2 Int Act: 1

## CCCCN(CCNC[C@H](O)c1ccc(OCc2ccccc2)c2[nH]c(=O)sc12)C(=O)CCOCCc1ccccc1 [Example 1, N-[2-[2-(4-Benzyloxy-2-oxo-3H-benzothiazol-7-yl)-(2R)-2-hydroxy-ethyl]aminoethyl]-N-butyl-3-phenethyloxy-propanamide]
β2 receptor [5]
  EC50: 20 nM
  Intrinsic Activity: 0.7
